Reference: ChEMBL document CHEMBL1949605, “Discovery of aminoheterocycles as potent and brain penetrant prolylcarboxypeptidase inhibitors” (Bioorg Med Chem Lett, 2012)

Key:
[1] = biological target: T1, Lysosomal Pro-X carboxypeptidase (Mus musculus, UniProt Q7TMR0); experiment: Inhibition of mouse recombinant PrCP assessed as angiotensin 3 cleavage after 8 mins by LC/MS analysis
T1 sequence (Q7TMR0 whole entry): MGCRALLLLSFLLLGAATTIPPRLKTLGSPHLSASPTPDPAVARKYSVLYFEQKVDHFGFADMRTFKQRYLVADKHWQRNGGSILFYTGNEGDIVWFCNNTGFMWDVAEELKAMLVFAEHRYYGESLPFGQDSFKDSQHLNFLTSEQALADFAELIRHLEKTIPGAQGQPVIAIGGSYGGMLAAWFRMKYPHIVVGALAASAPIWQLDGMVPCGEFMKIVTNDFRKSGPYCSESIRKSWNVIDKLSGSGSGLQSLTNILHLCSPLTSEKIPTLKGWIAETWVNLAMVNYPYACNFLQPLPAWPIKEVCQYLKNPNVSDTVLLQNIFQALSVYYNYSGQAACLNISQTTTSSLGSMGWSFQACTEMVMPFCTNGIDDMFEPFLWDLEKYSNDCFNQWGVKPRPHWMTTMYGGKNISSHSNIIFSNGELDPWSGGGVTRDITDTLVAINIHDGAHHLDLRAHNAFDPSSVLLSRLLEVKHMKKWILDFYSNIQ

[2] = Drug uptake in CF-1 mouse brain at 1 mg/kg, iv measured after 4 hrs post dosing; assay type: ADME, organism-based; parameters: dose 1 mg/kg, route intravenous; conditions: read-out: Drug uptake
[3] = Plasma concentration in CF-1 mouse at 1 mg/kg, iv measured after 4 hrs post dosing; assay type: ADME, organism-based; parameters: dose 1 mg/kg, route intravenous
[4] = Ratio of drug uptake in brain to plasma of CF-1 mouse at 1 mg/kg, iv measured 4 hrs post-dosing; assay type: ADME, organism-based; parameters: dose 1 mg/kg, route intravenous; conditions: read-out: BPR
[5] = biological target: T2, Lysosomal Pro-X carboxypeptidase (Homo sapiens) (UniProt P42785); experiment: Inhibition of human recombinant PrCP using Mca-Ala-Pro-Lys(Dnp)-OH as substrate at 5 uM after 30 mins by fluorescence analysis
T2 sequence (whole entry): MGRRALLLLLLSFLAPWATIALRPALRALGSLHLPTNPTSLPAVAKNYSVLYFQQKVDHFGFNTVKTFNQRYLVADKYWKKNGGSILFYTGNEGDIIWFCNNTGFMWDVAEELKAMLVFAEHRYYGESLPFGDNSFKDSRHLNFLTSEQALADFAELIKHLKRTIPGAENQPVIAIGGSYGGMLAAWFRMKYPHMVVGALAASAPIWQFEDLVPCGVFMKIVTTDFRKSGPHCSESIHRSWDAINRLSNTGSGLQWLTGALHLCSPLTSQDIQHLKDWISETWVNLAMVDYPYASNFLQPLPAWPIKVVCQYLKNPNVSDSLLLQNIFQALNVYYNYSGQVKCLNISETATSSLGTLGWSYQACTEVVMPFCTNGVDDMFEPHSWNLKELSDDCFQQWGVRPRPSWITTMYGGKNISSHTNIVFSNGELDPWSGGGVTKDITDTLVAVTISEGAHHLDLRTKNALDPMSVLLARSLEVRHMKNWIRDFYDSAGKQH

[6] = biological target: T1, Lysosomal Pro-X carboxypeptidase; experiment: Inhibition of mouse recombinant PrCP using Mca-Ala-Pro-Lys(Dnp)-OH as substrate after 30 mins by fluorescence analysis
[7] = biological target: T3, Lysosomal Pro-X carboxypeptidase (Homo sapiens, UniProt P42785); experiment: Inhibition of human recombinant PrCP using Mca-Ala-Pro-Lys(Dnp)-OH as substrate after 30 mins by fluorescence analysis
T3 sequence (P42785 whole entry): T2 sequence (whole entry)

SMILES	IC50 [1]	IC50 [6]	also measured
FC(F)(F)c1ccccc1-c1ccnc(N2CCC[C@H]2c2nc3cc(Cl)c(Cl)cc3[nH]2)c1			inhibition [5]: 46%
OC1(c2ccccc2)CCN(c2cc(N3CCC[C@H]3c3nc4cc(Cl)c(Cl)cc4[nH]3)ncn2)C1 (mixture of isomers)	> 20 µM		
CC(C)(O)C1CCCN(c2cc(N3CCC[C@H]3c3nc4cc(Cl)c(Cl)cc4[nH]3)ncn2)C1 (mixture of isomers)	> 20 µM		
Clc1cc2nc([C@@H]3CCCN3c3cc(NCC4CCCCC4)ncn3)[nH]c2cc1Cl			IC50 [7]: > 10 µM
Clc1cc2nc([C@@H]3CCCN3c3cc(N4CCN(Cc5ccccc5)CC4)ncn3)[nH]c2cc1Cl	> 20 µM	0.413 µM	
C[C@H](Nc1cc(N2CCCC(C(C)(C)O)C2)ncn1)c1ccc(Cl)cc1 (stereo not given in full)			concentration at 4 h [2]: 0.4 µM; concentration at 4 h [3]: 0.291 µM; Kp at 4 h [4]: 1.4
C[C@@H](c1ccc(Cl)cc1)N(C)c1cc(N2CCCC(C(C)(C)O)C2)ncn1 (mixture of isomers)	5 µM	0.797 µM	
C[C@@H](c1ccc(Cl)cc1)N(C)c1cc(N2CCCC(C(C)(C)O)C2)ncn1 (stereo in doubt; 36a)	2.21 µM	0.146 µM	
C[C@@H](c1ccc(-c2ccccc2)cc1)[C@H](NC(=O)C(C)(C)N)C(=O)N1CCC[C@H]1c1nc2cc(Cl)c(Cl)cc2[nH]1	0.025 µM		

Second part, led by results:

IC50 [1]	IC50 [6]	SMILES	also measured
> 20 µM		Clc1cc2nc([C@@H]3CCCN3c3cc(N4CCO[C@@H](c5ccccc5)C4)ncn3)[nH]c2cc1Cl	concentration at 4 h [2]: 0.242 µM; concentration at 4 h [3]: 0.304 µM; Kp at 4 h [4]: 0.79
0.355 µM	0.018 µM	Clc1cc2nc([C@@H]3CCCN3c3cc(N4CCCC(N5CCc6c(cccc6-c6cccnc6)C5)C4)ncn3)[nH]c2cc1Cl (stereo in doubt; 28b)	
> 20 µM		Clc1cc2nc([C@@H]3CCCN3c3cc(N4CCO[C@H](c5ccccc5)C4)ncn3)[nH]c2cc1Cl	
> 20 µM		Clc1cc2nc([C@@H]3CCCN3c3cc(N4CCC(c5ccccn5)C4)ncn3)[nH]c2cc1Cl (mixture of isomers)	
9 µM	0.046 µM	COc1ccc(C2CN(c3cc(N4CCC[C@H]4c4nc5cc(Cl)c(Cl)cc5[nH]4)ncn3)CCO2)cc1 (stereo not given in full)	
0.159 µM	0.026 µM	COC(=O)N[C@H]1CC[C@H](Nc2cc(N[C@@H](C)c3ccc(Cl)cc3)ncn2)CC1	
> 20 µM	0.206 µM	Clc1cc2nc([C@@H]3CCCN3c3cc(N4CCC(Cn5cccn5)CC4)ncn3)[nH]c2cc1Cl	
0.345 µM	0.01 µM	Clc1cc2nc([C@@H]3CCCN3c3cc(N4CCCC(N5CCc6c(cccc6-c6cccnc6)C5)C4)ncn3)[nH]c2cc1Cl (stereo in doubt; 28a)	concentration at 4 h [2]: 0.108 µM; concentration at 4 h [3]: 0.367 µM; Kp at 4 h [4]: 0.29
	0.075 µM	C[C@H](Nc1cc(N[C@H]2CC[C@H](c3ccccc3)CC2)ncn1)c1ccc(Cl)cc1	
	0.105 µM	C[C@H](Nc1cc(N[C@H]2CC[C@H](NS(C)(=O)=O)CC2)ncn1)c1ccc(Cl)cc1	
